Data published in US5532259A, “Isoxazole-4-carboxamides and hydroxyalkylidenecyanoacetamides, pharmaceuticals containing these compounds and their use” (Hoechst Aktiengesellschaft, priority 1990, dated 1996).

Experiments:
[1] = Acute toxicity on oral administration, rat; conditions: in vivo, SD rat, 3 weeks, Litchfield and Wilcoxon
Description: (§1) Acute toxicity on oral administration
(§2) Compound 1 was administered orally to the mice or rats to determine the acute toxicity.
(§3) The LD50 values were determined according to Litchfield and Wilcoxon.
(§4) The weight of the NMRI mice (NMRI : Naval Medical Research Institute) is 20 to 25 g and that of the SD rats (SD: Sprague-Dawley) is 120 to 165 g. The mice were fasted for about 18 hours before the test. They are fed normally again 5 hours after administration of the substances tested. After 3 weeks, the animals were sacrificed by means of chloroform and dissected. 6 animals are used per dose.

[2] = Acute toxicity after intraperitoneal administration, mouse; conditions: in vivo, ip, NMRI mouse, 3 weeks, Litchfield and Wilcoxon
Description: Acute toxicity after intraperitoneal administration
The acute toxicity after intraperitoneal administration of the test substances was carried out using NMRI mice (20 to 25 g) and SD rats (120 to 195 g). The test substance was suspended in a 1% strength sodium carboxymethyl cellulose solution. The various doses of the test substance were administered to the mice in a volume of 10 ml/kg of body weight and to the rats in a volume of 5 ml/kg of body weight. 10 animals were used per dose. After 3 weeks, the acute toxicity was determined according to the method of Litchfield and Wilcoxon.

[3] = system: CTLL mouse T cell line (Tc clone IL-2); assay: Cell proliferation test, CTLL; assay type: cell-based; conditions: 72 h, read-out: ED50 (concentration at which a 50% inhibition occurs)
Description: (§5) The cell culture in vitro proliferation test was used as an activity test for chemotherapeutics.
(§6) Clicks/RPMI 1640 medium (50:50) containing L-glutamine without any NaHCO3, in the form of powder for 10 1 (Seromed, Biochrom, Berlin, FRG) is dissolved in 9 l of double-distilled water, and sterile filtered into 900 ml bottles.
(§7) 900 ml of base medium are buffered using 9.5 ml of 7.5% strength sodium hydrogencarbonate solution and 5 ml of HEPES (N-2-hydroxyethyl-piperazine-N-2 ethanesulfonic acid) (Gibco, Eggenstein, FRG).
(§8) 900 ml of base medium plus 19 ml of NaHCO3 solution (7.5%; 10 ml of HEPES solution and 10 ml of L-glutamine solution (200 mM)).
(§9) For keeping the tumor cells and hybridoma cells, working medium containing 5% FCS is prepared. […]
(§10) The proliferation test was carried out in round bottom microtiter plates. […] In all tests, the values were determined four times. […] The value of the negative control was subtracted from all values determined and the difference of positive control minus negative control was set at 100%.
(§11) The plates were incubated at 37° C./5% CO2 for 72 h and the proliferation rate was determined correspondingly as with the mitogen-induced lymphocyte proliferation. […]

[4] = system: HT-2 mouse T cell line (IL-2); assay: Cell proliferation test, HT-2; assay type: cell-based; conditions: 72 h, read-out: ED50 (concentration at which a 50% inhibition occurs)
Description: as §5, §6, §7, §8, §9, §10, §11

[5] = system: CTL-J-K mouse T cell line (Tc, IL-2); assay: Cell proliferation test, CTL-J-K; assay type: cell-based; conditions: 72 h, read-out: ED50 (concentration at which a 50% inhibition occurs)
Description: as §5, §6, §7, §8, §9, §10, §11

[6] = system: Cl 9/4 mouse T cell line (IL-4 dep.); assay: Cell proliferation test, Cl 9/4; assay type: cell-based; conditions: 72 h, read-out: ED50 (concentration at which a 50% inhibition occurs)
Description: as §5, §6, §7, §8, §9, §10, §11

[7] = system: K III 5 mouse T cell line (Th, IL-2); assay: Cell proliferation test, K III 5; assay type: cell-based; conditions: 72 h, read-out: ED50 (concentration at which a 50% inhibition occurs)
Description: as §5, §6, §7, §8, §9, §10, §11

Spleen T (con A and PWM) = assay: Mitogen-induced lymphocyte proliferation, Spleen T; assay type: cell-based; conditions: Mus musculus, T-cell, 64 h, 48 h + 16 h with tritium thymidine, read-out: ED50 (concentration at which a 50% inhibition occurs)
Description: as §5, §6, §7, §8
(§12) Medium for mitogen-induced lymphocyte proliferation. Working medium containing 1% heat-inactivated (30 min, 56° C.) fetal calf serum (FCS) is prepared.
(§13) The mice are sacrificed by cervical dislocation and the spleens are removed under sterile conditions. The spleens are shredded on a sterile sieve having a mesh width of 80 "mesh" and are carefully transferred to a Petri dish containing working medium using the plunger of a plastic syringe (10 ml). […]
(§14) The group with mitogen additions and without preparation were defined as positive controls. […] The amount of radioactivity incorporated by these cells is measured in a beta counter (Packard, Tricarb 460c).

Spleen B (LPS) = assay: Mitogen-induced lymphocyte proliferation, Spleen B; assay type: cell-based; conditions: Mus musculus, B-cell, 64 h, 48 h + 16 h with tritium thymidine, read-out: ED50 (concentration at which a 50% inhibition occurs)
Description: as §5, §6, §7, §8, §12, §13, §14

[8] = system: A20 2J mouse B cell tumor (BALB/c); assay: Cell proliferation test, A20 2J; assay type: cell-based; conditions: 72 h, read-out: ED50 (concentration at which a 50% inhibition occurs)
Description: as §5, §6, §7, §8, §9, §10, §11

[9] = system: TRK 4 mouse B cell hybridoma; assay: Cell proliferation test, TRK 4; assay type: cell-based; conditions: 72 h, read-out: ED50 (concentration at which a 50% inhibition occurs)
Description: as §5, §6, §7, §8, §9, §10, §11

[10] = system: TRK 5 mouse B cell hybridoma; assay: Cell proliferation test, TRK 5; assay type: cell-based; conditions: 72 h, read-out: ED50 (concentration at which a 50% inhibition occurs)
Description: as §5, §6, §7, §8, §9, §10, §11

[11] = system: Bone marrow mouse (M-CSF, GM CSF); assay: Cell proliferation test, bone marrow; assay type: cell-based; conditions: 72 h, read-out: ED50 (concentration at which a 50% inhibition occurs)
Description: as §5, §6, §7, §8, §9, §10, §11

[12] = system: WEHI 279 mouse B cell lymphoma; assay: Cell proliferation test, WEHI 279; assay type: cell-based; conditions: 72 h, read-out: ED50 (concentration at which a 50% inhibition occurs)
Description: as §5, §6, §7, §8, §9, §10, §11

P 388 D1 mouse Mo tumor = assay: Cell proliferation test, P 388 D1; assay type: cell-based; conditions: P388D1, 72 h, read-out: ED50 (concentration at which a 50% inhibition occurs)
Description: as §5, §6, §7, §8, §9, §10, §11

[13] = system: 7TD1 mouse B cell hybridoma (IL-6); assay: Cell proliferation test, 7TD1; assay type: cell-based; conditions: 72 h, read-out: ED50 (concentration at which a 50% inhibition occurs)
Description: as §5, §6, §7, §8, §9, §10, §11

[14] = system: PB-3C mouse mast cell line (IL-3); assay: Cell proliferation test, PB-3C; assay type: cell-based; conditions: 72 h, read-out: ED50 (concentration at which a 50% inhibition occurs)
Description: as §5, §6, §7, §8, §9, §10, §11

DA-1 mouse tumor (IL-3) = assay: Cell proliferation test, DA-1; assay type: cell-based; conditions: 72 h, read-out: ED50 (concentration at which a 50% inhibition occurs)
Description: as §5, §6, §7, §8, §9, §10, §11

7D4 rat hybridoma = assay: Cell proliferation test, 7D4; assay type: cell-based; conditions: 72 h, read-out: ED50 (concentration at which a 50% inhibition occurs)
Description: as §5, §6, §7, §8, §9, §10, §11

[15] = system: A431 human epidermoid carcinoma; assay: Cell proliferation test, A431; assay type: cell-based; conditions: A-431, 72 h, read-out: ED50 (concentration at which a 50% inhibition occurs)
Description: as §5, §6, §7, §8, §9, §10, §11

[16] = system: KB human epidermoid carcinoma; assay: Cell proliferation test, KB; assay type: cell-based; conditions: 72 h, read-out: ED50 (concentration at which a 50% inhibition occurs)
Description: as §5, §6, §7, §8, §9, §10, §11

[17] = system: HFF human foreskin fibroblast; assay: Cell proliferation test, HFF; assay type: cell-based; conditions: 72 h, read-out: ED50 (concentration at which a 50% inhibition occurs)
Description: as §5, §6, §7, §8, §9, §10, §11

[18] = system: HL-60 human promyelomonocytic leukemia; assay: Cell proliferation test, HL-60; assay type: cell-based; conditions: 72 h, read-out: ED50 (concentration at which a 50% inhibition occurs)
Description: as §5, §6, §7, §8, §9, §10, §11

[19] = Acute toxicity on oral administration, mouse; conditions: in vivo, NMRI mouse, 3 weeks, Litchfield and Wilcoxon
Description: as §1, §2, §3, §4

Question: Which LD50 at 504 h [1] does the source give for `C/C(O)=C(\C#N)C(=O)Nc1ccc(C(F)(F)F)cc1` [Compound 2, N-(4-trifluoromethylphenyl)-2-cyano-3-hydroxycrotonamide] here?
Answer: 160 mg/kg

Question: And the LD50 at 504 h [2]?
Answer: 100 to 200 mg/kg

Question: With `Cc1oncc1C(=O)Nc1ccc(C(F)(F)F)cc1` [Compound 1, 5-methylisoxazole-4-carboxylic acid (4-trifluoromethyl)anilide] as the molecule, how does the IC50 [3] read?
Answer: 40 to 50 µM

Question: And the IC50 [4]?
Answer: 40 to 50 µM

Question: And the IC50 [5]?
Answer: 40 to 50 µM

Question: And the IC50 [6]?
Answer: 25 µM

Question: What about the IC50 [7] of the same molecule?
Answer: 1 to 3 µM

Question: What about the IC50 (Spleen T (con A and PWM)) of the same molecule?
Answer: 10 µM

Question: What about the IC50 (Spleen B (LPS)) of the same molecule?
Answer: 10 µM

Question: What about the IC50 [8] of the same molecule?
Answer: 1 to 3 µM

Question: What about the IC50 [9] of the same molecule?
Answer: 5 µM

Question: What about the IC50 [10] of the same molecule?
Answer: 5 µM

Question: What about the IC50 [11] of the same molecule?
Answer: 5 µM

Question: And the IC50 [12]?
Answer: ≤ 1 µM

Question: What about the IC50 (P 388 D1 mouse Mo tumor) of the same molecule?
Answer: 10 µM

Question: And the IC50 [13]?
Answer: 10 µM

Question: And the IC50 [14]?
Answer: 20 µM

Question: And the IC50 (DA-1 mouse tumor (IL-3))?
Answer: 5 µM

Question: What about the IC50 (7D4 rat hybridoma) of the same molecule?
Answer: ≤ 1 µM

Question: And the IC50 [15]?
Answer: 15 µM

Question: What about the IC50 [16] of the same molecule?
Answer: 15 µM

Question: And the IC50 [17]?
Answer: 40 µM

Question: What about the IC50 [18] of the same molecule?
Answer: 25 µM

Question: And the LD50 at 504 h [19]?
Answer: 445 mg/kg

Question: What about the LD50 at 504 h [1] of the same molecule?
Answer: 235 mg/kg
